Experimental findings from ChEMBL document CHEMBL1671782, “Cationic surfactants derived from lysine: effects of their structure and charge type on antimicrobial and hemolytic activities” (J Med Chem, 2011) are described below.

One data set can be described thus: in vitro. The note with it: human, erythrocytes.
Data set [1] concerns Staphylococcus aureus. Kind of data set: microbe, parasite or virus in culture. The note with it: ATCC 25178, 24 h.
Description: Antimicrobial activity against Staphylococcus aureus ATCC 25178 assessed as inhibition of visible growth after 24 hrs at pH 7.4
The next data set deals with Pseudomonas aeruginosa. Kind of data set: microbe, parasite or virus in culture. The note with it: ATCC 9721, 24 h.
Data set [2] relates to Escherichia coli. In words: microbe, parasite or virus in culture. The note with it: ATCC 27325, 24 h.
Description: (§1) Antimicrobial activity against Escherichia coli ATCC 27325 assessed as inhibition of visible growth after 24 hrs at pH 7.4
Data set [3] has as its system Staphylococcus epidermidis. Kind of data set: microbe, parasite or virus in culture. The note with it: ATCC 155-1, 24 h.
Description: Antimicrobial activity against Staphylococcus epidermidis ATCC 155-1 assessed as inhibition of visible growth after 24 hrs at pH 7.4
Data set [4] relates to Micrococcus luteus. Kind of data set: microbe, parasite or virus in culture. The note with it: ATCC 9341, 24 h.
Description: Antimicrobial activity against Micrococcus luteus ATCC 9341 assessed as inhibition of visible growth after 24 hrs at pH 7.4
Another data set relates to Candida albicans. Kind of data set: microbe, parasite or virus in culture. The note with it: ATCC 10231, 24 h.
The subject of another data set is Bacillus subtilis. In words: microbe, parasite or virus in culture. The note with it: ATCC 6633, 24 h.
The subject of data set [5] is Klebsiella pneumoniae. In words: microbe, parasite or virus in culture. The note with it: ATCC 9721, 24 h.
Description: Antimicrobial activity against Klebsiella pneumoniae ATCC 9721 assessed as inhibition of visible growth after 24 hrs at pH 7.4
Data set [6] concerns Escherichia coli. The note with it: ATCC 27325.
Description: as §1
Data set [7] concerns Klebsiella pneumoniae. Kind of data set: Antimicrobial activity against Klebsiella pneumoniae ATCC 9721 at 250 ug/ml at pH 7.4. The format is functional, organism-based.
Data set [8] relates to Staphylococcus aureus. In words: Antimicrobial activity against Staphylococcus aureus ATCC 25178 at 250 ug/ml at pH 7.4. The format is functional, organism-based.
In data set [9] the test system is Micrococcus luteus. In words: Antimicrobial activity against Micrococcus luteus ATCC 9341 at 250 ug/ml at pH 7.4. The format is functional, organism-based.

Each structure is given as a SMILES string. ≈ marks a conversion by molar mass, not a printed value. Calls of active or inactive are those of the source. The calls are words filed in the database; no cut-off is given here. Peptide text beside a SMILES is read from it. * marks the point of attachment. Lauroyl = CCCCCCCCCCCC(=O)*

Description for Bacillus subtilis: Antimicrobial activity against Bacillus subtilis ATCC 6633 assessed as inhibition of visible growth after 24 hrs at pH 7.4
Description for Candida albicans: Antimicrobial activity against Candida albicans ATCC 10231 assessed as inhibition of visible growth after 24 hrs at pH 7.4
Description for Pseudomonas aeruginosa: Antimicrobial activity against Pseudomonas aeruginosa ATCC 9721 assessed as inhibition of visible growth after 24 hrs at pH 7.4
Description for in vitro: Toxicity in human erythrocytes assessed as hemolytic activity measured after 10 mins shaking
Description for physchem: Dissociation constant, pKa of the compound

One may read the HC50 as the concentration that lyses half of the red blood cells. The term pKa denotes the pH at which an ionisable group is half protonated. A lower pKa goes with a group that gives up its proton readily. Molecule `CCCCCCCCCCCC(=O)N[C@@H](CCCNC(=N)N)C(=O)N[C@@H](CCCCN)C(=O)OC` (Lauroyl-Arg-Lys-OMe) came in with a concentration for 50% haemolysis (HC50) at 10 min in the data set “in vitro” of 1350 µM. Besides, the MIC with Staphylococcus aureus [1] is 54 µM (≈ 26.9 µg/mL); against Pseudomonas aeruginosa, 218 µM (≈ 109 µg/mL); against Escherichia coli [2], 218 µM (≈ 109 µg/mL); in data set [3], 218 µM (≈ 109 µg/mL); in the data set with Micrococcus luteus [4], 28 µM (≈ 14 µg/mL); with Candida albicans it was 218 µM (≈ 109 µg/mL). For the same molecule, the MIC amounted to 28 µM (≈ 14 µg/mL) against Bacillus subtilis and 218 µM (≈ 109 µg/mL) against Klebsiella pneumoniae [5]. This molecule gave a pKa in “physchem” of 10.

With `CCCCCCCCCCCC(=O)N[C@@H](CCCCN)C(=O)OC`, the HC50 at 10 min in the data set “in vitro” stood at 199 µM. The MIC in the data set with Staphylococcus aureus [1] amounted to 166 µM (≈ 56.9 µg/mL); against Pseudomonas aeruginosa, 331 µM (≈ 113 µg/mL); with Escherichia coli [2], 331 µM (≈ 113 µg/mL); in [3], 83 µM (≈ 28.4 µg/mL); in the data set on Micrococcus luteus [4], 83 µM (≈ 28.4 µg/mL); against Candida albicans, 166 µM (≈ 56.9 µg/mL). The MIC against Bacillus subtilis and against Klebsiella pneumoniae [5] was 331 µM (≈ 113 µg/mL) in each case. Also, the pKa in the data set “physchem” was determined as 10.

On to `CCCCCCCCCCCC(=O)N[C@@H](CCCCN)C(=O)NCCCCCCNC(=O)[C@H](CCCCN)NC(=O)CCCCCCCCCCC`, for which the HC50 at 10 min in the data set “in vitro” came out at 475 µM. Also, the MIC stood at 154 µM (≈ 114 µg/mL) with Staphylococcus aureus [1], 77 µM (≈ 56.8 µg/mL) in data set [3], 154 µM (≈ 114 µg/mL) against Micrococcus luteus [4] and 308 µM (≈ 227 µg/mL) in the data set on Bacillus subtilis. Moreover, the outcome in the data set with Escherichia coli [6] and with Klebsiella pneumoniae [7] was inactive.

`CCCCCCCCCCCC(=O)NCCCC[C@H](N)C(=O)OC` showed a 50% haemolytic concentration (HC50) at 10 min in the data set “in vitro” of 391 µM. Also, the MIC with Staphylococcus aureus [1] worked out at 331 µM (≈ 113 µg/mL); in the data set with Escherichia coli [2], 166 µM (≈ 56.9 µg/mL); in data set [3], 166 µM (≈ 56.9 µg/mL); in the data set with Micrococcus luteus [4] it was 331 µM (≈ 113 µg/mL); in the data set on Candida albicans it was 166 µM (≈ 56.9 µg/mL); in the data set with Bacillus subtilis, 331 µM (≈ 113 µg/mL). The molecule further came in with an MIC with Klebsiella pneumoniae [5] of 331 µM (≈ 113 µg/mL). In the data set “physchem”, this molecule displayed a pKa of 10.

In “in vitro”, `CCCCCCCCCCCC(=O)NCCCC[C@H](N)C(=O)NCCCCNCCCNC(=O)[C@@H](N)CCCCNC(=O)CCCCCCCCCCC` registered an HC50 at 10 min of 12 µM. The outcome in the data set with Klebsiella pneumoniae [7] and in the data set on Staphylococcus aureus [8] was inactive. The MIC turned out to be 142 µM (≈ 109 µg/mL) against Pseudomonas aeruginosa; 142 µM (≈ 109 µg/mL) in data set [3]; 142 µM (≈ 109 µg/mL) against Micrococcus luteus [4]; 285 µM (≈ 218 µg/mL) in the data set on Candida albicans; 142 µM (≈ 109 µg/mL) against Bacillus subtilis.

`CCCCCCCCCCCC(=O)NCCCC[C@H](N)C(=O)NCCCCCCNC(=O)[C@@H](N)CCCCNC(=O)CCCCCCCCCCC` showed a 50% haemolytic concentration (HC50) at 10 min in the data set “in vitro” of 116 µM. Besides, the result with Klebsiella pneumoniae [7], in the data set on Staphylococcus aureus [8] and with Micrococcus luteus [9] was inactive. The results for the MIC (in data set [3]; against Bacillus subtilis) were 38 µM (≈ 28 µg/mL) and 308 µM (≈ 227 µg/mL), respectively.

Molecule `CCCCCCCCCCCC(=O)N[C@@H](CCCNC(=N)N)C(=O)NCCCC[C@H](N)C(=O)OC` had an HC50 at 10 min in the data set “in vitro” of 791 µM. Further, the MIC with Staphylococcus aureus [1] came out at 436 µM (≈ 217 µg/mL); in data set [3] it was 436 µM (≈ 217 µg/mL); with Micrococcus luteus [4], 436 µM (≈ 217 µg/mL); with Candida albicans it was 436 µM (≈ 217 µg/mL); in the data set on Bacillus subtilis it was 218 µM (≈ 109 µg/mL). In addition, the outcome in the data set on Klebsiella pneumoniae [7] was inactive. In addition, the pKa in “physchem” is 10.

As to `CCCCCCCCCCCC(=O)NCCCC[C@@H](C(=O)NCCCCCCNC(=O)[C@H](CCCCNC(=O)CCCCCCCCCCC)[N+](C)(C)C)[N+](C)(C)C`, the 50% haemolytic concentration (HC50) at 10 min in the data set “in vitro” came out at 11 µM. Also, the MIC with Staphylococcus aureus [1] was determined as 67 µM; in data set [3], 16 µM; in the data set with Micrococcus luteus [4] it was 67 µM; in the data set with Candida albicans, 67 µM; with Bacillus subtilis, 16 µM. For the same molecule, the outcome in the data set on Klebsiella pneumoniae [7] was inactive.
